# Species on record: Homo sapiens
# Test: Protac activity at E3 ubiquitin ligase/alpha-syn expressed in human HEK293/TREx A53T cells assessed as alpha-synuclein degradation measured as amount of protein remaining at 1 uM by ELISA relative to control
# Type: cell-based
row,SMILES,Activity [%]
1,CNc1ccc(-c2nc3ccc(OCCOCCOCCOCCOCCOCC(=O)N[C@H](C(=O)N4C[C@H](O)C[C@H]4C(=O)N[C@@H](C)c4ccc(-c5scnc5C)cc4)C(C)(C)C)cc3s2)cc1,< 35
2,CNc1ccc(-c2nc3ccc(OCCOCCOCCOCCOCCOCCOCC(=O)N[C@H](C(=O)N4C[C@H](O)C[C@H]4C(=O)N[C@@H](C)c4ccc(-c5scnc5C)cc4)C(C)(C)C)cc3s2)cc1,< 35
3,Cc1ncsc1-c1ccc([C@H](C)NC(=O)[C@@H]2C[C@@H](O)CN2C(=O)[C@@H](NC(=O)CN2CCN(CCN3CCC(O[C@H]4C[C@H](Oc5ccc6c(c5)Sc5cc([N+](=O)[O-])ccc5N6)C4)CC3)CC2)C(C)(C)C)cc1,< 35
4,O=C1CCC(N2C(=O)c3ccc(N4CCN(CCCO[C@H]5C[C@H](Oc6ccc7c(c6)Sc6cc([N+](=O)[O-])ccc6N7)C5)CC4)cc3C2=O)C(=O)N1 (stereo partly specified),35 to 70
5,Cc1ncsc1-c1ccc([C@H](C)NC(=O)[C@@H]2C[C@@H](O)CN2C(=O)[C@@H](NC(=O)COCCOCCOc2ccc(CN3C(=O)/C(=C/C=C/c4ccc([N+](=O)[O-])cc4)c4ccccc43)cc2)C(C)(C)C)cc1,35 to 70
6,CNc1ccc(-c2nc3ccc(OCCOCCOCC(=O)N[C@H](C(=O)N4C[C@H](O)C[C@H]4C(=O)N[C@@H](C)c4ccc(-c5scnc5C)cc4)C(C)(C)C)cc3s2)cc1,< 35

# Reference: ChEMBL document CHEMBL4616686, “PROTAC Compounds Targeting α-Synuclein Protein for Treating Neurogenerative Disorders: Alzheimer's and Parkinson's Diseases” (ACS Med Chem Lett, 2020)
